According to patent US7476511B2, “Method of detecting and analyzing paclitaxel-mimetic compounds” (priority 2001, dated 2009):
Like-named read-outs stand apart in the source and are kept apart here. Blank lines part the entries; values can stand above or below the compound they belong to.

Experiments:
[1] = Description: Standard concentrated solutions were prepared and were kept at −20° C. in a dry atmosphere. The paclitaxel (from the National Cancer Institute, Bethesda, Md.) was measured spectroscopically at 273 nm following dilution in methanol, using an extinction coefficient of 1,700 M^−1 cm^−1 (Diaz, J. F. and Andreu, J. M.) ^3H-paclitaxel (4 Ci mmol^−1) was obtained from Moravek Biochemicals (Brea, Calif.), Docetaxel (Taxotere) was supplied by Rhône-Poulenc Rorer (Antony, France). […] The methyl ester of the C-13 side chain of paclitaxel was supplied by E. Baloglu and D. G. I. Kingston of the Virginia Polytechnic Institute (Blacksburg, Va.).
[2] = test system: paclitaxel binding site of microtubules; test: Competition test: displacement of Flutax-2 from microtubules, fluorescence anisotropy in microplate; design: species or system bovine; details: for displacement of Flutax-2 / inhibition of the anisotropy of microtubule Flutax-2 / equilibrium binding constant to microtubules (numerical analysis of displacement isotherms): 50 nM Flutax-2/50 nM microtubule sites; for equilibrium binding constant to microtubules (numerical analysis of displacement isotherms): 25° C., mean of several determinations; for equilibrium constant K, best fit of competition isotherm (FIG. 2): GAB-GDP buffer at 25° C., 50 nM Flutax-2, 50 nM sites
Description: Using Flutax-2 as a reference probe for the binding site to paclitaxel, the binding of other non-fluorescent ligands which displace Flutax-2 from the microtubules (see FIG. 1) can easily be measured by the changes in […] fluorescence properties in a competition test. The change of fluorescence anisotropy, which was analysed in 96-well plates with a microplate reader, was used. […] Baccatine III is equivalent to the taxane ring system, in which the group C-13 OH substitutes the paclitaxel side chain (see chemical structures in FIG. 2). The C-13 side chain has previously been considered as an essential determinant for recognition of paclitaxel.
Tubulin from bovine brain was purified and stored, and its concentration was measured as has been described (Andreu, J. M. et al.). Prior to its use it was balanced in 10 mM sodium phosphate, 1 mM EGTA, 0.1 mM GTP, 3.5M glycerol pH 6.8, with a Sephadex G-25 gravity column used cold, and it was centrifuged cold for 10 min at 50,000 in a TLA 100.4 rotor (Beckman) cold. The 50 μM tubulin was made 6 mM in MgCl2 (in other words, glycerol assembly buffer GAB, final pH 6.5) and 1 mM GTP, it was assembled in microtubules at 37° C. and these were gently cross-linked with 20 mM glutaraldehyde, the reaction being stopped with NaBH4 as has been described (Diaz, J. F. et al.). […] The cross-linked microtubules were dialysed against GAB-0.1 mM nucleotide (GTP or GDP) for more than 16 h, cold, in dialysis cassettes (Pierce) and were conserved frozen drop by drop in liquid nitrogen, or at 4° C. with 0.05% of sodium azide. This conservation method for the cross-linked microtubules by means of dialysis against a conservation and cryopreservation buffer is claimed in the present invention.
These competitive measurements were made with the polarisation plate reader. A solution of known concentrations of binding sites of microtubule and Flutax-2, both close to 50 nM, in GAB-GDP buffer, was freshly prepared starting from the concentrated reserves of cross-linked microtubules and Flutax-2. It was dispensed in aliquots of 200 μL (final volume) at room temperature in 96-well plates (Costar cat. No. 3599, the wells at the edges were not used). […] The ligands to test were added in small volumes of DMSO (concentration of final DMSO 2% v/v) in order to make the desired duplicated concentrations. A check was also made that the paclitaxel was not adsorbed onto the plate during the test, using ^3H-paclitaxel and a scintillation counter. The wells without protein and without Flutax-2 were included for calibration and background measurements respectively (see anisotropy measurements, above). The plates were stirred by rotation for 10 minutes and were measured twice within 30-90 minutes following balancing at 25° C. in the microplate reader. The anisotropy data of Flutax-2 was calculated with the evaluation software (BMG) and was traced against the total concentration of the competitor.
With the aim of measuring the binding affinity of a ligand (L) which displaces the reference ligand Flutax-2 from its microtubule binding site (S), unitary stoichiometry was assumed, with the fractional binding of Flutax-2 starting from the anisotropy being determined as [F]b/[S]0=[F]0(r−rmin)/[S]0(rmax−rmin) and the following expressions were applied K(F)=[SF]/[S] [F] [9] K(B)=[SB]/[S] [B] [10] [F]=[F]0−[SF] [11] [L]=[L]0−[SL] [12]

[3] = test system: paclitaxel binding site of microtubules; test: Displacement of 3H-paclitaxel from microtubules by sedimentation and scintillation count; details: 1 mg mL^−1 bovine serum albumin present
Excerpt: In a series of control measurements, the displacement of the interaction of ^3H-paclitaxel with microtubules by baccatine III and Flutax-2 was evidenced by sedimentation and scintillation count. […] This confirmed that baccatine III is recognised by the paclitaxel binding site of microtubules. Nevertheless, with the aim of having the majority of the radioactive ^3H-paclitaxel tracer in solution, instead of being absorbed into the polycarbonate tube of the table-top ultracentrifuge, it was necessary to include 1 mg mL^−1 of bovine serum albumin, which binds the paclitaxel (keeping it available for interaction with the microtubules) and also the Flutax-2 (decreasing its apparent affinity). These adsorption processes make it impossible to have any direct rigorous measurement of the affinity of the binding of paclitaxel to microtubules in our hands, and therefore of the affinity of its competitors using paclitaxel as a reference ligand in these diluted tests. The additional disadvantages of the binding tests of ^3H-paclitaxel in comparison with the homogeneous test of the anisotropy of fluorescent taxoid are the operations of centrifugation, separation and radioactive measurement that are required. […]

[4] = test system: paclitaxel binding site of microtubules; test: Binding of Flutax-2 to cross-linked microtubules by fluorescence anisotropy; design: species or system bovine
Description: The intensity of fluorescence of Flutax-2 changes very little with the binding to microtubules. There is a small change in the excitation maximum from 494 nm to 495 nm (isosbestic point at 500 nm ) and a blue shift in emission from 523 nm to 520 nm (not shown here; isosbestic point at 525 nm; Diaz, J. F. et al.). […] The excitation anisotropy spectrum of a 50 nM solution of microtubule sites/Flutax-2 was compared with the spectrum of a similar solution in which the binding sites were blocked by an excess of paclitaxel and of free Flutax-2. […] The anisotropy values determined for the 495 nm band (emission 520 nm; GAB buffer containing glycerol, 25° C.) were: free Flutax-2 (50 nm ), rmin=0.055; in the presence of microtubules blocked with paclitaxel, r=0.060; Flutax-2 specifically bound to the microtubules, rmax=0.29 (the last was determined by valuation of 50 nm Flutax-2 with growing concentrations of microtubules). These changes are consistent with a strong immobilisation of the fluorophore by the binding. […]
Tubulin from bovine brain was purified and stored, and its concentration was measured as has been described (Andreu, J. M. et al.). […]
Fluorescence spectra were obtained corrected with a Fluorolog-3-221 photon count instrument (Jobin Yvon-Spex, Longlumean, France), with an emission bandwidth of 5 nm and excitation of […] at 25° C. […] The multiple measurements of anisotropy were made with a PolarStar microplate reader (BMG Labtechnologies, Offenburg, Germany) at 25° C. The solutions were excited with 200 pulses of vertically polarised light (band-pass filter 485-P, 480-492 nm ) and the emission was simultaneously analysed with vertical and horizontal polarisation filters (band-pass 520-P, 515-550 nm ). […] The values of well blanks with microtubules and without Flutex-2 were subtracted from the values of fluorescence intensity (the blanks typically represented less than 4% of the measurement). […]

[5] = test system: cross-linked microtubules; test: Concentration of taxoid binding sites by sedimentation and spectrophotometric measurement of Flutax-2; design: species or system bovine; details: 5 μM Flutax-2, GAB-GDP buffer, 25° C.
Description: Their concentration of total tubulin was measured after diluting them in 1% SDS using an extinction coefficient of 107,000 M^−1 cm^−1 at 275 nm (Diaz, J. F. and Andreu, J. M.). […] The concentration of binding sites of taxoid was determined by addition of growing concentrations of microtubules cross-linked to 5 μM Flutax-2 in the GAB-GDP buffer, sedimentation (Diaz, J. F. et al., 50,000 rpm in a Beckman TLA 120 rotor at 25° C.) and spectrophotometric measurement of Flutax-2. It was observed that the preparations of cross-linked microtubules bound 0.75±0.05 of Flutax-2 per total tubulin (in other words, a minimum of 95% of the bound tubulin was active binding this ligand). The control measurements using ^3H-paclitaxel and liquid scintillation gave values similar to Flutax-2. Once the anisotropy values of Flutax bound to microtubule and free were determined, the number of sites could also be determined by valuation of diluted solutions of microtubules cross-linked with Flutax-2 (see further below). The concentration of binding sites of taxoids of the preparations of cross-linked microtubules turned out to be stable in liquid nitrogen, decaying at speeds between 0.02 and 0.05 day^−1 at 4° C. (mean lives of five and two weeks respectively). The cross-linked microtubules were used within one average life starting from the preparation.

Structure (SMILES): COC(=O)C(O)C(NC(=O)c1ccccc1)c1ccccc1 (stereo not shown) [methyl ester of the C-13 side chain, methyl ester of the C-13 side chain of paclitaxel]
solubility [1]: ≥ 0.75 mM
displacement of Flutax-2 / inhibition of the anisotropy of microtubule Flutax-2 [2]: inactive
equilibrium binding constant to microtubules (numerical analysis of displacement isotherms) [2]: < 10^3 M^−1
K of simulated low affinity binding (line through data, FIG. 2) ([2]; simulation, data similar to controls): 700 M⁻¹

Structure (SMILES): CC(=O)O[C@H]1C(=O)[C@]2(C)[C@@H](OC(=O)[C@H](C)NC(=O)c3ccc4c(c3)C(=O)OC43c4cc(F)c(O)cc4Oc4cc(O)c(F)cc43)C[C@H]3OC[C@@]3(OC(C)=O)[C@H]2[C@H](OC(=O)c2ccccc2)[C@]2(O)C[C@H](OC(=O)[C@H](O)[C@@H](NC(=O)c3ccccc3)c3ccccc3)C(C)=C1C2(C)C [Flutax-2, 7-O-[N-(2,7-difluoro-4′-fluoresceincarbonyl)-L-alanyl]paclitaxel]
apparent affinity compared with fluorescence anisotropy tests [3]: seven times lower
equilibrium binding constant of Flutax-2 (FIG. 2 legend) ([4]; GAB-GDP buffer at 25° C.): 1.5e+08 M⁻¹
equilibrium constant of the binding Kb (binding isotherm from change of anisotropy) ([4]; GAB-GDP buffer at 25° C.): 1.15e+08 M⁻¹
Flutax-2 bound per total tubulin [5]: 0.75±0.05

Structure (SMILES): CC(=O)O[C@H]1C(=O)[C@@]2(C)[C@H]([C@H](OC(=O)c3ccccc3)[C@]3(O)C[C@H](O)C(C)=C1C3(C)C)[C@]1(OC(C)=O)CO[C@@H]1C[C@@H]2O [baccatine III, Baccatine III]
solubility ([1]; pH 6.5): soluble at the concentrations used
displacement of Flutax-2 / inhibition of the anisotropy of microtubule Flutax-2 [2]: entirely inhibited
equilibrium binding constant to microtubules (numerical analysis of displacement isotherms) [2]: 1.5±0.5)×10^5 M^−1
equilibrium constant K, best fit of competition isotherm (FIG. 2) [2]: 150000 M⁻¹
total concentrations needed for inhibition relative to paclitaxel ([2]; entire inhibition of anisotropy): approximately 200 times

Now from value to compound:

equilibrium binding constant to microtubules (numerical analysis of displacement isotherms) [2]: (6.0±2.3)×10^7 M^−1
equilibrium constant K, best fit of competition isotherm (FIG. 2) [2]: 8e+07 M⁻¹
ratio of affinities of docetaxel to paclitaxel ([2]; on the basis of the individual experiments): 2.7±0.3
Structure (SMILES): CC(=O)O[C@@]12CO[C@@H]1C[C@H](O)[C@@]1(C)C(=O)[C@H](O)C3=C(C)[C@@H](OC(=O)[C@H](O)[C@@H](NC(=O)OC(C)(C)C)c4ccccc4)C[C@@](O)([C@@H](OC(=O)c4ccccc4)[C@H]21)C3(C)C [docetaxel, Docetaxel]

cancellation of the binding of Flutax-2 to microtubules ([4]; 10 μM paclitaxel): entirely annulled
equilibrium binding constant to microtubules (numerical analysis of displacement isotherms) [2]: (3.7±1.5)×10^7 M^−1
equilibrium constant K, best fit of competition isotherm (FIG. 2) [2]: 3.2e+07 M⁻¹
Structure (SMILES): CC(=O)O[C@H]1C(=O)[C@@]2(C)[C@H]([C@H](OC(=O)c3ccccc3)[C@]3(O)C[C@H](OC(=O)[C@H](O)[C@@H](NC(=O)c4ccccc4)c4ccccc4)C(C)=C1C3(C)C)[C@]1(OC(C)=O)CO[C@@H]1C[C@@H]2O [paclitaxel]
